Assay results taken from patent US11339171B2, “MDM2 inhibitors” (Gan & Lee Pharmaceuticals, priority 2017, dated 2022).
Several values for one entry are separate records, joined by “and”; a condition that tells them apart may be missing. Identical values can stand only once. Like-named read-outs stand apart in the source and are kept apart here.

How the values were obtained:
[1] = Pharmacokinetics in ICR mice after intravenous and intragastric administration; format: in vivo; details: for MRT inf: read-out: MRT(0-∞); for Vd: read-out: Vz; for MRT last: read-out: MRT(0-t); for bioavailability: PO 5 mg/kg vs IV 2 mg/kg, from mean values, read-out: F* (bioavailability)
Summary of the method: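 Male ICR mice (6-9 weeks, 20-30 g, n=3 per route) were fasted overnight and dosed at 2 mg/kg i.v. or 5 mg/kg intragastrically in 5% DMSO/40% PEG400/55% (10% HP-β-CD in saline). Plasma levels were measured by LC-MS/MS after protein precipitation (LLOQ 1 ng/mL), and non-compartmental PK parameters were calculated.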

[2] = molecular target: T1, MDM2 (Homo sapiens, UniProt Q00987); assay: Inhibition test of MDM2-P53 (GST-MDM2, Biotin-P53, Anti-GST-Tb, SA-XL665); format: binding
T1 construct: made in house
T1 sequence (Q00987 whole entry): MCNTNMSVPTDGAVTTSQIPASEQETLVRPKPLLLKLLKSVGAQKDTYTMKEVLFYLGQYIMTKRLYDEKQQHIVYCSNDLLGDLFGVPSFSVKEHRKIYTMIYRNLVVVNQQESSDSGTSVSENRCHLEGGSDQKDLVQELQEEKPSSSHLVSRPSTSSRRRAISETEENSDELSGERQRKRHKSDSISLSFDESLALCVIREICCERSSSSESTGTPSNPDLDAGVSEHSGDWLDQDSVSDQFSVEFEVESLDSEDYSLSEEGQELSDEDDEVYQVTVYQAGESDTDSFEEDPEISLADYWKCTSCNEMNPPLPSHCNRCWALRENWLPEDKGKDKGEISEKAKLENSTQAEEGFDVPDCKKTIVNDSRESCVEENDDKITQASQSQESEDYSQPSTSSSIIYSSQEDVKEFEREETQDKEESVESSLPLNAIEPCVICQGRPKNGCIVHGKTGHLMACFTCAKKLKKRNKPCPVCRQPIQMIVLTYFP
Summary of the method: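 HTRF-type assay using 4 nM GST-MDM2 (final), Biotin-P53, SA-XL665 and anti-GST-Tb in PBS with 0.1% BSA, 5 mM DTT and 1 mM AEBSF. Compounds in 5-fold serial dilutions over twelve points; incubation 90 min at 25° C with shaking before plate-reader read-out.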

[3] = system: human osteosarcoma cell line SJSA-1; assay: Inhibition of proliferation of human osteosarcoma cell line SJSA-1 (DAPI staining, In Cell Analyzer); details: Homo sapiens, SJSA-1, 72 h, read-out: IC50 (nM), inhibitory activity on proliferation of human osteosarcoma cell line SJSA-1, SJSA-1, incubated 72 h
Protocol: 2.2 Experiment Preparation:
2.2.1 Preparation of a culture medium for human osteosarcoma cell line SJSA-1: RPMI1640+10% FBS+1% penicillin/streptomycin
2.2.2 Preparation of a test compound solution:
a. the test compound solution with a certain concentration was taken, and diluted with the culture medium to obtain a compound solution with a final concentration of 20 μM;
b. 200 μL of a culture medium containing 0.2% DMSO (dimethyl sulfoxide) was added into H2-H10 of a 96-well plate; 300 μl of the above solution was added into H1; and
c. 100 μL was taken out from well H1, added into H2, and mixed well; then 100 μl of the resultant solution was taken and added into H3, and dilution was carried out in sequence until H9 to obtain the 3-fold serial dilution of the test compound.
2.3 Experimental Process:
2.3.1 SJSA-1 cells were inoculated into a 96-well cell plate with black transparent bottom at 4000 cells/100 μl/well, and cultured overnight at 37° C.;
2.3.3 Fixation: the cell plate was taken out, the culture medium was removed, and 50 μL of 4% paraformaldehyde solution was added to each well to fix for 10 min;
2.3.4 50 μl of 0.1 M glycine was added to neutralize for 10 min;
2.3.5 Washing was performed with 1×PBS (phosphate buffer solution pH7.2) twice;
2.3.6 Permeabilization: 50 μL of 0.2% TritonX-100 (Triton) was added per well, and permeabilization was carried out at room temperature for 10 min;
2.3.7 Washing was performed with 1×PBS (phosphate buffer solution pH7.2) twice;
2.3.9 Washing was performed with 1×PBS (phosphate buffer solution pH7.2) for three times; and
2.3.10 Scanning and analysis were performed by In cell analyzer.
The inhibition rate of each compound at each concentration point was calculated according to the following formula, and curve fitting was performed by GraphPad Prism 6.0 software to obtain the IC50 value.

[4] = ICR mice, IV 2 mg/kg, individual animal, 2 mg/kg
[5] = ICR mice, PO 5 mg/kg, individual animal, 5 mg/kg
[6] = male, ICR, mouse, plasma, iv, 2 mg/kg, ICR mice, IV 2 mg/kg, individual animal, read-out: Cmax
[7] = male, ICR, mouse, plasma, iv, 2 mg/kg, ICR mice, IV 2 mg/kg, individual animal
[8] = male, ICR, mouse, plasma, iv, 2 mg/kg, ICR mice, IV 2 mg/kg, individual animal, read-out: Tmax
[9] = male, ICR, mouse, plasma, iv, 2 mg/kg, ICR mice, IV 2 mg/kg, individual animal, read-out: t1/2 (converted)
[10] = male, ICR, mouse, plasma, iv, 2 mg/kg, ICR mice, IV 2 mg/kg, mean of 3 animals
[11] = male, ICR, mouse, plasma, iv, 2 mg/kg, ICR mice, IV 2 mg/kg, mean of 3 animals, read-out: AUC(0-t)
[12] = male, ICR, mouse, plasma, iv, 2 mg/kg, ICR mice, IV 2 mg/kg, mean of 3 animals, read-out: Cmax
[13] = male, ICR, mouse, plasma, iv, 2 mg/kg, ICR mice, IV 2 mg/kg, mean of 3 animals, read-out: Tmax
[14] = male, ICR, mouse, plasma, iv, 2 mg/kg, ICR mice, IV 2 mg/kg, mean of 3 animals, read-out: t1/2 (converted)
[15] = male, ICR, mouse, plasma, po, 5 mg/kg, ICR mice, PO 5 mg/kg, individual animal
[16] = male, ICR, mouse, plasma, po, 5 mg/kg, ICR mice, PO 5 mg/kg, individual animal, read-out: AUC(0-t)
[17] = male, ICR, mouse, plasma, po, 5 mg/kg, ICR mice, PO 5 mg/kg, individual animal, read-out: t1/2 (converted)
[18] = male, ICR, mouse, plasma, po, 5 mg/kg, ICR mice, PO 5 mg/kg, mean of 3 animals
[19] = male, ICR, mouse, plasma, po, 5 mg/kg, ICR mice, PO 5 mg/kg, mean of 3 animals, read-out: AUC(0-t)
[20] = male, ICR, mouse, plasma, po, 5 mg/kg, ICR mice, PO 5 mg/kg, mean of 3 animals, read-out: Cmax
[21] = male, ICR, mouse, plasma, po, 5 mg/kg, ICR mice, PO 5 mg/kg, mean of 3 animals, read-out: Tmax
[22] = male, ICR, mouse, plasma, po, 5 mg/kg, ICR mice, PO 5 mg/kg, mean of 3 animals, read-out: t1/2 (converted)
[23] = male, ICR, mouse, plasma, po, 5 mg/kg, oral intragastric administration 5 mg/kg, read-out: AUC0-t

Structure (SMILES): COc1cc(C2CC2)ncc1-c1nc2c(n1C(C)C)[C@@]1(C(=O)Nc3cc(Cl)ccc31)N(c1cc(Cl)ccc1C)C2=O [Example S-103, (S)-6-chloro-5′-(5-chloro-2-methylphenyl)-2′-(6-cyclopropyl-4-methoxypyridin-3-yl)-3′-isopropyl-3′H-spiro[dihydroindole-3,4′-pyrrolo[3,4-d]imidazole]-2,6′(5′H)-dione]
- AUC(0-t) [1, 4]: 10.46062 µg·h/mL and 4.00987 µg·h/mL and 5.5084 µg·h/mL
- AUC(0-∞) [1, 4]: 10.48352 µg·h/mL and 5.11953 µg·h/mL and 8.77181 µg·h/mL
- CL [1, 4]: 0.191 L/h/kg and 0.391 L/h/kg and 0.228 L/h/kg
- Cmax [1, 4]: 1.04599 µg/mL and 1.33349 µg/mL
- MRT(0-t) [1, 4]: 4.16 h and 2.05 h and 2.33 h
- MRT(0-∞) [1, 4]: 3.75 h and 5.91 h
- Vz [1, 4]: 1.53 L/kg and 1.35 L/kg
- t1/2 [1, 4]: 2.71 h and 4.11 h
- AUC(0-t) [1, 5]: 13.07828 µg·h/mL and 19.87262 µg·h/mL
- AUC(0-∞) [1, 5]: 14.23155 µg·h/mL and 19.88879 µg·h/mL
- Cmax [1, 5]: 2.34401 µg/mL and 3.00806 µg/mL
- MRT(0-t) [1, 5]: 3.36 h and 4.45 h
- MRT(0-∞) [1, 5]: 3.93 h and 4.47 h
- Tmax [1, 5]: 4.00 h
- t1/2 [1, 5]: 1.72 h and 2.23 h
- Cmax [1, 6]: 1.33 µg/mL
- MRT inf [1, 7]: 4.21 h
- Tmax [1, 8]: 1 h
- Vd [1, 7]: 0.79 L/kg
- half-life [1, 9]: 2.89 h
- AUC(0-inf) [1, 10]: 8.12 µg·h/mL
- clearance [1, 10]: 0.27 L/h/kg
- AUC(0-t) [1, 11]: 6.66 µg·h/mL
- Cmax [1, 12]: 1.24 µg/mL
- MRT last [1, 10]: 2.85 h
- MRT inf [1, 10]: 4.62 h
- Tmax [1, 13]: 1 h
- Vd [1, 10]: 1.22 L/kg
- half-life [1, 14]: 3.24 h
- AUC(0-inf) [1, 15]: 11.7 µg·h/mL
- AUC(0-t) [1, 16]: 11 µg·h/mL
- Cmax ([1]; male, ICR, mouse, plasma, po, 5 mg/kg, ICR mice, PO 5 mg/kg, individual animal, read-out: Cmax): 2.38 µg/mL
- MRT last [1, 15]: 3.08 h
- MRT inf [1, 15]: 3.54 h
- Tmax ([1]; male, ICR, mouse, plasma, po, 5 mg/kg, ICR mice, PO 5 mg/kg, individual animal, read-out: Tmax): 2 h
- half-life [1, 17]: 1.84 h
- AUC(0-inf) [1, 18]: 15.3 µg·h/mL
- AUC(0-t) [1, 19]: 14.6 µg·h/mL
- Cmax [1, 20]: 2.58 µg/mL
- MRT last [1, 18]: 3.63 h
- MRT inf [1, 18]: 3.98 h
- Tmax [1, 21]: 3.33 h
- half-life [1, 22]: 1.93 h
- AUC(0-t) [1, 23]: 14.6 µg·h/mL
- half-life ([1]; male, ICR, mouse, plasma, po, 5 mg/kg, oral intragastric administration 5 mg/kg, read-out: half-life (converted)): 1.93 h
- bioavailability ([1]; male, mouse, plasma, ICR mice): 87.9%
- IC50 [2]: 0.00181 µM
- IC50 [3]: 40.5 nM

Structure (SMILES): COc1cc(OC)c(-c2nc3c(n2C(C)C)[C@@]2(C(=O)Nc4cc(Cl)ccc42)N(c2cccc(Cl)c2)C3=O)cn1 [Example S-115, (S)-6-chloro-5′-(3-chlorophenyl)-2′-(4,6-dimethoxypyridin-3-yl)-3′-isopropyl-3′H-spiro[dihydroindole-3,4′-pyrrolo[3,4-d]imidazole]-2,6′(5′H)-dione]
- AUC(0-t) [1, 4]: 2.27866 µg·h/mL and 2.98742 µg·h/mL
- AUC(0-∞) [1, 4]: 2.28966 µg·h/mL and 3.0113 µg·h/mL
- CL [1, 4]: 0.8736 L/h/kg and 0.6642 L/h/kg
- Cmax [1, 4]: 2.54996 µg/mL and 4.13698 µg/mL
- MRT(0-t) [1, 4]: 0.79 h and 0.82 h
- MRT(0-∞) [1, 4]: 0.82 h and 0.87 h
- Vz [1, 4]: 1.01 L/kg and 0.87 L/kg
- t1/2 [1, 4]: 0.80 h
- AUC(0-t) [1, 5]: 2.3553 µg·h/mL and 2.98559 µg·h/mL
- AUC(0-∞) [1, 5]: 2.37788 µg·h/mL and 3.06625 µg·h/mL
- Cmax [1, 5]: 2.13546 µg/mL and 0.83466 µg/mL and 0.60129 µg/mL
- MRT(0-t) [1, 5]: 1.37 h and 2.13 h and 3.22 h
- MRT(0-∞) [1, 5]: 1.41 h and 2.20 h and 3.39 h
- Tmax [1, 5]: 0.50 h and 1.00 h and 4.00 h
- t1/2 [1, 5]: 1.19 h and 1.12 h
- AUC(0-inf) [1, 7]: 2.59 µg·h/mL
- clearance [1, 7]: 0.772 L/h/kg
- AUC(0-t) ([1]; male, ICR, mouse, plasma, iv, 2 mg/kg, ICR mice, IV 2 mg/kg, individual animal, read-out: AUC(0-t)): 2.58 µg·h/mL
- Cmax [1, 6]: 3 µg/mL
- MRT last [1, 7]: 0.9 h
- MRT inf [1, 7]: 0.94 h
- Tmax [1, 8]: 0.08 h
- Vd [1, 7]: 1 L/kg
- half-life [1, 9]: 0.9 h
- AUC(0-inf) [1, 10]: 2.63 µg·h/mL
- clearance [1, 10]: 0.77 L/h/kg
- AUC(0-t) [1, 11]: 2.61 µg·h/mL
- Cmax [1, 12]: 3.23 µg/mL
- MRT last [1, 10]: 0.84 h
- MRT inf [1, 10]: 0.88 h
- Tmax [1, 13]: 0.083 h
- Vd [1, 10]: 0.96 L/kg
- half-life [1, 14]: 0.87 h
- AUC(0-inf) [1, 15]: 3.67 µg·h/mL
- AUC(0-t) [1, 16]: 3.66 µg·h/mL
- half-life [1, 17]: 1.07 h
- AUC(0-inf) [1, 18]: 3.04 µg·h/mL
- AUC(0-t) [1, 19]: 3 µg·h/mL
- Cmax [1, 20]: 1.19 µg/mL
- MRT last [1, 18]: 2.24 h
- MRT inf [1, 18]: 2.33 h
- Tmax [1, 21]: 1.83 h
- half-life [1, 22]: 1.12 h
- AUC(0-t) [1, 23]: 3 µg·h/mL
- bioavailability ([1]; male, mouse, plasma, ICR mice): 45.9%
- IC50 [2]: 0.0013 µM
- IC50 [3]: 3360 nM
